Among the data in the NIST ThermoML archive (doi:10.1016/j.tca.2006.04.004) are mass density values, retold here.

The nature of data set [1]: mn = molality of the nth substance listed, in mol/kg. To be noted: 101 kPa, Liquid, Pycnometric method, m1 = 1.5.
The conditions of data set [2]: 101.33 kPa, Liquid, Pycnometric method.

The term mass density denotes the mass of a sample divided by its volume.

Molecules are shown by their SMILES. Numbers after ± are expanded uncertainties.

Take `[Cl-].[Na+]` [sodium chloride] + O: the mass density in data set [1] (298.15 K) turned out to be 1058.8 ± 0.6 kg/m3; in data set [1] (303.15 K), 1056.1 ± 0.6 kg/m3; in data set [1] (308.15 K), 1053.8 ± 0.6 kg/m3; in data set [1] (313.15 K), 1051.4 ± 0.6 kg/m3; in data set [1] (318.15 K), 1048.8 ± 0.6 kg/m3; in data set [1] (323.15 K), 1046.2 ± 0.6 kg/m3.

`O=[N+]([O-])[O-].[K+]` [potassium nitrate] + O: the mass density in data set [1] (298.15 K) is reported as 1086.9 ± 0.6 kg/m3; in data set [1] (303.15 K), 1085 ± 0.6 kg/m3; in data set [1] (308.15 K), 1083 ± 0.6 kg/m3; in data set [1] (313.15 K), 1080.6 ± 0.6 kg/m3; in data set [1] (318.15 K), 1077.9 ± 0.6 kg/m3; in data set [1] (323.15 K) it was 1075 ± 0.6 kg/m3.

`O=[N+]([O-])[O-].[Na+]` [sodium nitrate] + O: the mass density in data set [1] (298.15 K) worked out at 1079.1 ± 0.6 kg/m3; in data set [1] (303.15 K), 1076.5 ± 0.6 kg/m3; in data set [1] (308.15 K), 1073.5 ± 0.6 kg/m3; in data set [1] (313.15 K) it was 1070.3 ± 0.6 kg/m3; in data set [1] (318.15 K), 1067 ± 0.6 kg/m3; in data set [1] (323.15 K), 1063.7 ± 0.6 kg/m3.

Take `O` [water]: the mass density in data set [2] (308.15 K) worked out at 994.2 ± 0.5 kg/m3; in data set [2] (318.15 K), 990.3 ± 0.5 kg/m3; in data set [2] (323.15 K), 987.9 ± 0.5 kg/m3.
